This is an account of results in ChEMBL document CHEMBL1158504, “Cell permeability of Py-Im-polyamide-fluorescein conjugates: Influence of molecular size and Py/Im content” (Bioorg Med Chem, 2010).

Structures are written as SMILES.

Assay type in all cases: ADME, cell-based; call rule not given here
For series [1], the system named is MCF7. Kind of series: Cellular uptake in human MCF7 cells assessed as labeled cells at 1 uM after 24 hrs by flow cytometry. To be noted: mcf7, 24 h.
In series [2] the test system is HEK293. Kind of series: Cellular uptake in HEK293 cells assessed as localization to nucleus at 1 uM after 24 hrs by fluorescence microscopy. To be noted: human, hek293, 24 h.
Series [3] has as its system HEK293. Kind of series: Cellular uptake in HEK293 cells assessed as labeled cells at 1 uM after 24 hrs by flow cytometry. To be noted: human, hek293, 24 h.
The test system of series [4] is MCF7. Kind of series: Cellular uptake in human MCF7 cells assessed as increase in labeled cells at 1 uM after 24 hrs by flow cytometry. To be noted: mcf7, 24 h.
The subject of series [5] is HEK293. Kind of series: Cellular uptake in HEK293 cells assessed as localization to cytoplasm at 1 uM after 24 hrs by fluorescence microscopy. To be noted: human, hek293, 24 h.
Series [6] relates to HEK293. Kind of series: Cellular uptake in HEK293 cells assessed as intracellular localization at 1 uM after 24 hrs by fluorescence microscopy. To be noted: human, hek293, 24 h.

For `CN(C)CCCNC(=O)c1cc(NC(=O)c2cc(NC(=O)c3cc(NC(=O)CCCNC(=O)c4cc(NC(=O)c5cc(NC(=O)c6cc(NC(=O)CCNC(=S)Nc7ccc(-c8c9ccc(=O)cc-9oc9cc(O)ccc89)c(C(=O)O)c7)cn6C)cn5C)cn4C)cn3C)cn2C)cn1C`, the Drug uptake in the series on MCF7 [1] is given as over 90%. As for `CN(C)CCCNC(=O)c1nc(NC(=O)c2nc(NC(=O)c3nc(NC(=O)CCNc4nc(NC(=O)c5nc(NC(=O)c6nc(NC(=O)CCNC(=S)Nc7ccc(-c8c9ccc(=O)cc-9oc9cc(O)ccc89)c(C(=O)O)c7)cn6C)cn5C)cn4C)cn3C)cn2C)cn1C`, the Drug uptake entry with HEK293 [2] is on record as “Not Active”; in the series on HEK293 [3], 39%; in the series with MCF7 [4] it was “Not Active”. As for `CN(C)CCCNC(=O)c1nc(NC(=O)c2nc(NC(=O)c3nc(NC(=O)CCNC(=S)Nc4ccc(-c5c6ccc(=O)cc-6oc6cc(O)ccc56)c(C(=O)O)c4)cn3C)cn2C)cn1C`, the Drug uptake in the series with HEK293 [3] was 53%. Still for that read-out and setting: to `CN(C)CCCNC(=O)c1nc(NC(=O)c2nc(NC(=O)c3nc(NC(=O)CCNc4nc(NC(=O)c5nc(NC(=O)c6nc(NC(=O)CCNc7nc(NC(=O)c8nc(NC(=O)c9nc(NC(=O)CCNC(=S)Nc%10ccc(-c%11c%12ccc(=O)cc-%12oc%12cc(O)ccc%11%12)c(C(=O)O)c%10)cn9C)cn8C)cn7C)cn6C)cn5C)cn4C)cn3C)cn2C)cn1C` belongs 3%. Regarding `CN(C)CCCNC(=O)c1cc(NC(=O)c2cc(NC(=O)c3cc(NC(=O)CCNc4cc(NC(=O)c5cc(NC(=O)c6cc(NC(=O)CCNc7cc(NC(=O)c8cc(NC(=O)c9cc(NC(=O)CCNc%10cc(NC(=O)c%11cc(NC(=O)c%12cc(NC(=O)CCNc%13cc(NC(=O)c%14cc(NC(=O)c%15cc(NC(=O)CCNC(=S)Nc%16ccc(-c%17c%18ccc(=O)cc-%18oc%18cc(O)ccc%17%18)c(C(=O)O)c%16)cn%15C)cn%14C)cn%13C)cn%12C)cn%11C)cn%10C)cn9C)cn8C)cn7C)cn6C)cn5C)cn4C)cn3C)cn2C)cn1C`, the Drug uptake entry is “Active” in the series on HEK293 [5] and over 82% in the series on HEK293 [3].

With `CN(C)CCCNC(=O)c1cc(NC(=O)c2cc(NC(=O)c3cc(NC(=O)CCNc4cc(NC(=O)c5cc(NC(=O)c6cc(NC(=O)CCNc7cc(NC(=O)c8cc(NC(=O)c9cc(NC(=O)CCNC(=S)Nc%10ccc(-c%11c%12ccc(=O)cc-%12oc%12cc(O)ccc%11%12)c(C(=O)O)c%10)cn9C)cn8C)cn7C)cn6C)cn5C)cn4C)cn3C)cn2C)cn1C`, the Drug uptake result with HEK293 [2] is recorded as “Active”; in the series with HEK293 [3], over 82%.

`CN(C)CCCNC(=O)c1nc(NC(=O)c2nc(NC(=O)c3nc(NC(=O)CCNc4nc(NC(=O)c5nc(NC(=O)c6nc(NC(=O)CCNc7nc(NC(=O)c8nc(NC(=O)c9nc(NC(=O)CCNc%10nc(NC(=O)c%11nc(NC(=O)c%12nc(NC(=O)CCNC(=S)Nc%13ccc(-c%14c%15ccc(=O)cc-%15oc%15cc(O)ccc%14%15)c(C(=O)O)c%13)cn%12C)cn%11C)cn%10C)cn9C)cn8C)cn7C)cn6C)cn5C)cn4C)cn3C)cn2C)cn1C`: the Drug uptake in the series with HEK293 [3] was determined as 1.1%. The same measure, in the same setting: to `CN(C)CCCNC(=O)c1cc(NC(=O)c2cc(NC(=O)c3cc(NC(=O)CCNC(=S)Nc4ccc(-c5c6ccc(=O)cc-6oc6cc(O)ccc56)c(C(=O)O)c4)cn3C)cn2C)cn1C` belongs 53%. As for `CN(C)CCCNC(=O)c1cc(NC(=O)c2cc(NC(=O)c3cc(NC(=O)CCNc4cc(NC(=O)c5cc(NC(=O)c6cc(NC(=O)CCNC(=S)Nc7ccc(-c8c9ccc(=O)cc-9oc9cc(O)ccc89)c(C(=O)O)c7)cn6C)cn5C)cn4C)cn3C)cn2C)cn1C`, the Drug uptake result in the series with HEK293 [2] is recorded as “Active”; in the series on HEK293 [3], over 82%; in the series with MCF7 [4], “Active”. Regarding `CN(C)CCCNC(=O)c1cc(NC(=O)c2cc(NC(=O)c3cc(NC(=O)CCNc4cc(NC(=O)c5cc(NC(=O)c6cc(NC(=O)CCNc7cc(NC(=O)c8cc(NC(=O)c9cc(NC(=O)CCNc%10cc(NC(=O)c%11cc(NC(=O)c%12cc(NC(=O)CCNc%13cc(NC(=O)c%14cc(NC(=O)c%15cc(NC(=O)CCNc%16cc(NC(=O)c%17cc(NC(=O)c%18cc(NC(=O)CCNC(=S)Nc%19ccc(-c%20c%21ccc(=O)cc-%21oc%21cc(O)ccc%20%21)c(C(=O)O)c%19)cn%18C)cn%17C)cn%16C)cn%15C)cn%14C)cn%13C)cn%12C)cn%11C)cn%10C)cn9C)cn8C)cn7C)cn6C)cn5C)cn4C)cn3C)cn2C)cn1C`, the Drug uptake entry in the series on HEK293 [5] is listed as “Active”; with HEK293 [3] it was over 82%; in the series on HEK293 [6], “Active”. For `CN(C)CCCNC(=O)c1cc(NC(=O)c2cc(NC(=O)c3cc(NC(=O)CCNc4cc(NC(=O)c5cc(NC(=O)c6cc(NC(=O)CCNc7cc(NC(=O)c8cc(NC(=O)c9cc(NC(=O)CCNc%10cc(NC(=O)c%11cc(NC(=O)c%12cc(NC(=O)CCNC(=S)Nc%13ccc(-c%14c%15ccc(=O)cc-%15oc%15cc(O)ccc%14%15)c(C(=O)O)c%13)cn%12C)cn%11C)cn%10C)cn9C)cn8C)cn7C)cn6C)cn5C)cn4C)cn3C)cn2C)cn1C`, the Drug uptake with HEK293 [3] is over 82%.
